Where two headings read alike, the source gives them in different places.
Experiments:
[1] = tested on: HepG2 cells; assay: HepG2 cytotoxicity counter-screen; settings: cytotoxic activity against HepG2 cells
[2] = tested on: P. falciparum male gametocytes; assay: P. falciparum Dual Gamete Formation Assay (PfDGFA), male readout (exflagellation); assay type: cell-based, Plasmodium falciparum NF54; settings: for Selectivity Ratio M: HepG2 Tox50 versus male IC50; for IC50: PfDGFA, 24 h incubation with gametocytes before induction, exflagellation readout, read-out: Male IC50; for HitlevelM: number of replicates with >50% inhibition in the male readout
Method in brief: (§1)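 NF54 mature gametocytes (d14), cpd 24 h 37°C hypoxic gas; trigger: xanthurenic acid ookinete medium + Cy3 anti-Pfs25, 4°C 4 min → 28°C 4 min. Male: exflagellation centres, brightfield x6. Female: Pfs25+ gametes, fluorescence, +24 h 28°C dark.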

[3] = tested on: P. falciparum female gametocytes; assay: P. falciparum Dual Gamete Formation Assay (PfDGFA), female readout (Pfs25-positive female gametes); assay type: cell-based, Plasmodium falciparum NF54; settings: for Selectivity ratio F: HepG2 Tox50 versus female IC50; for IC50: PfDGFA, 24 h incubation with gametocytes before induction, female gamete readout, read-out: Female IC50; for HitlevelF: number of replicates with >50% inhibition in the female readout
Method in brief: as §1

[4] = PfDGFA at 2µM, 24h preincubation with gametocytes, average of replicates
[5] = PfDGFA at 2µM, 24h preincubation with gametocytes, replicate R1
[6] = PfDGFA at 2µM, 24h preincubation with gametocytes, replicate R3
[7] = PfDGFA at 2µM, 24h preincubation with gametocytes, replicate R4
[8] = 2µM, 24h preincubation with gametocytes, average of replicates
[9] = 2µM, 24h preincubation with gametocytes, replicate R1
[10] = 2µM, 24h preincubation with gametocytes, replicate R3
[11] = 2µM, 24h preincubation with gametocytes, replicate R4
[12] = 2µM, 24h preincubation with gametocytes prior to induction of gametogenesis, average of replicates
[13] = 2µM, 24h preincubation with gametocytes prior to induction of gametogenesis, replicate R1
[14] = 2µM, 24h preincubation with gametocytes prior to induction of gametogenesis, replicate R3
[15] = 2µM, 24h preincubation with gametocytes prior to induction of gametogenesis, replicate R4

Structure (SMILES) | IC50 [2] | IC50 [3] | Tox50 [1] | Selectivity Ratio M [2] | Selectivity ratio F [3] | Average inhibition male (%) [2, 8] | % inhibition male (individual replicates) R1 [2, 9] | % inhibition male (individual replicates) R3 [2, 10] | % inhibition male (individual replicates) R4 [2, 11] | Average inhibition female (%) [3, 8] | % inhibition female (individual replicates) R1 [3, 9] | % inhibition female (individual replicates) R3 [3, 10] | % inhibition female (individual replicates) R4 [3, 11] | other results
CC(C)S(=O)(=O)N1CCN(Cc2ccc3c(c2)nc(NC(=O)c2ccsc2)n3C[C@H](O)c2ccccc2)CC1 [TCMDC-138569] | – | – | 8.48 µM | 20.83 | 0.85 | – | – | – | – | – | – | – | – | inhibition at 2 µM ([2]; Plasmodium falciparum, PfDGFA at 2µM, 24h preincubation with gametocytes, average of replicates, read-out: Average inhibition male (%)): 67.3%; inhibition at 2 µM ([2]; Plasmodium falciparum, PfDGFA at 2µM, 24h preincubation with gametocytes, replicate R1, read-out: % inhibition male (individual replicates) R1): 77.8%; inhibition at 2 µM ([2]; Plasmodium falciparum, PfDGFA at 2µM, 24h preincubation with gametocytes, replicate R2, read-out: % inhibition male (individual replicates) R2): 73.7%; inhibition at 2 µM ([2]; Plasmodium falciparum, PfDGFA at 2µM, 24h preincubation with gametocytes, replicate R3, read-out: % inhibition male (individual replicates) R3): 62.3%; inhibition at 2 µM ([2]; Plasmodium falciparum, PfDGFA at 2µM, 24h preincubation with gametocytes, replicate R4, read-out: % inhibition male (individual replicates) R4): 55.6%; IC50 ([2]; Plasmodium falciparum): 0.41 µM; HitlevelM ([2]; 2µM): 4; inhibition at 2 µM ([3]; Plasmodium falciparum, PfDGFA at 2µM, 24h preincubation with gametocytes, average of replicates, read-out: Average inhibition female (%)): 9.7%; inhibition at 2 µM ([3]; Plasmodium falciparum, PfDGFA at 2µM, 24h preincubation with gametocytes, replicate R1, read-out: % inhibition female (individual replicates) R1): 10.7%; inhibition at 2 µM ([3]; Plasmodium falciparum, PfDGFA at 2µM, 24h preincubation with gametocytes, replicate R2, read-out: % inhibition female (individual replicates) R2): -0.7%; inhibition at 2 µM ([3]; Plasmodium falciparum, PfDGFA at 2µM, 24h preincubation with gametocytes, replicate R3, read-out: % inhibition female (individual replicates) R3): -17.5%; inhibition at 2 µM ([3]; Plasmodium falciparum, PfDGFA at 2µM, 24h preincubation with gametocytes, replicate R4, read-out: % inhibition female (individual replicates) R4): 46.4%; IC50 ([3]; Plasmodium falciparum): > 10 µM; HitlevelF ([3]; 2µM): 0
Cl.O=C1Nc2ccc3ncccc3c2/C1=C/Nc1ccc(N2CCN(CCO)CC2)cc1 [TCMDC-138634] | – | – | 33.87 µM | 229.28 | 3.39 | – | – | – | – | – | – | – | – | inhibition at 2 µM ([2]; Plasmodium falciparum, 2µM, 24h preincubation with gametocytes, average of replicates, read-out: Average inhibition male (%)): 92.8%; inhibition at 2 µM ([2]; Plasmodium falciparum, 2µM, 24h preincubation with gametocytes, replicate R1, read-out: % inhibition male (individual replicates) R1): 89.8%; inhibition at 2 µM ([2]; Plasmodium falciparum, 2µM, 24h preincubation with gametocytes, replicate R2, read-out: % inhibition male (individual replicates) R2): 91.5%; inhibition at 2 µM ([2]; Plasmodium falciparum, 2µM, 24h preincubation with gametocytes, replicate R3, read-out: % inhibition male (individual replicates) R3): 89.7%; inhibition at 2 µM ([2]; Plasmodium falciparum, 2µM, 24h preincubation with gametocytes, replicate R4, read-out: % inhibition male (individual replicates) R4): 100%; IC50 ([2]; Plasmodium falciparum): 0.15 µM; inhibition at 2 µM ([3]; Plasmodium falciparum, 2µM, 24h preincubation with gametocytes, average of replicates, read-out: Average inhibition female (%)): -7.8%; inhibition at 2 µM ([3]; Plasmodium falciparum, 2µM, 24h preincubation with gametocytes, replicate R1, read-out: % inhibition female (individual replicates) R1): -5.3%; inhibition at 2 µM ([3]; Plasmodium falciparum, 2µM, 24h preincubation with gametocytes, replicate R2, read-out: % inhibition female (individual replicates) R2): -7.3%; inhibition at 2 µM ([3]; Plasmodium falciparum, 2µM, 24h preincubation with gametocytes, replicate R3, read-out: % inhibition female (individual replicates) R3): -18.8%; inhibition at 2 µM ([3]; Plasmodium falciparum, 2µM, 24h preincubation with gametocytes, replicate R4, read-out: % inhibition female (individual replicates) R4): 0.25%; IC50 ([3]; Plasmodium falciparum): > 10 µM
C=CC(C)C1OC(=O)c2cc(OC)cc(OC)c21 (centres unmarked) [TCMDC-138676] | 0.57 µM | 1.15 µM | 1.57 µM | 2.76 | 1.37 | 100.2% | 101.1% | 101.1% | 99.6% | 94.9% | 92.0% | 102.0% | 91.3% | –
C=CCC1OC(=O)c2cc(OC)cc(OC)c21 (centres unmarked) [TCMDC-138677] | 1.16 µM | 1.8 µM | 2.57 µM | 2.21 | 1.43 | 100.4% | 99.9% | 100.4% | 100.2% | 52.4% | 41.8% | 47.5% | 59.2% | –
COc1cc2nc(N3CCC(CNC(=O)c4ccc(-c5ccc(-c6noc(C)n6)cc5)cc4)CC3)nc(N)c2cc1OC [TCMDC-138754] | 0.61 µM | 0.61 µM | 3.68 µM | 6 | 6.02 | 99.2% | 101.8% | 98.0% | 96.9% | 48.8% | 31.8% | 47.5% | 53.9% | –
COc1ccc(NC(=O)c2ccc(OCCCCCCCOc3ccc(C(=O)Nc4ccc(OC)c(N5CCN(C)CC5)c4)cc3)cc2)cc1N1CCN(C)CC1.O=C(O)C(=O)O [TCMDC-139007] | 0.9 µM | 1.33 µM | 3.94 µM | 4.37 | 2.96 | 92.9% | 92.7% | 82.0% | 95.6% | 47.5% | 33.2% | 33.3% | 62.1% | –
COc1ccc(NC(=O)c2cccc(Br)c2)cc1N1CCN(CCCCCCCN2CCN(c3cc(NC(=O)c4cccc(Br)c4)ccc3OC)CC2)CC1.Cl [TCMDC-139020] | 1.98 µM | 1.83 µM | 7.95 µM | 4 | 4.34 | – | – | – | – | – | – | – | – | Average inhibition male (%) [2, 12]: 30.8%; % inhibition male (individual replicates) R1 [2, 13]: 35.3%; % inhibition male (individual replicates) R3 [2, 14]: 36.0%; % inhibition male (individual replicates) R4 [2, 15]: 43.4%; HitlevelM ([2]; 2µM, 24h preincubation): 0; Average inhibition female (%) [3, 12]: 52.2%; % inhibition female (individual replicates) R1 [3, 13]: 51.4%; % inhibition female (individual replicates) R3 [3, 14]: 52.5%; % inhibition female (individual replicates) R4 [3, 15]: 56.9%; HitlevelF ([3]; 2µM, 24h preincubation): 3

Now from value to compound, other results behind:

IC50 [2] | IC50 [3] | Structure (SMILES) | Tox50 [1] | Selectivity Ratio M [2] | Selectivity ratio F [3] | Average inhibition male (%) [2, 8] | % inhibition male (individual replicates) R1 [2, 9] | % inhibition male (individual replicates) R3 [2, 10] | % inhibition male (individual replicates) R4 [2, 11] | Average inhibition female (%) [3, 8] | % inhibition female (individual replicates) R1 [3, 9] | % inhibition female (individual replicates) R3 [3, 10] | % inhibition female (individual replicates) R4 [3, 11] | other results
1.77 µM | 6.88 µM | CN1CCN(CCCNCc2ccc(Nc3nccc(Nc4ccc(Oc5ccccc5)cc4)n3)cc2)CC1 [TCMDC-138621] | 7.88 µM | 4.45 | 1.14 | – | – | – | – | – | – | – | – | Average inhibition male (%) [2, 4]: 76.4%; % inhibition male (individual replicates) R1 [2, 5]: 65.3%; % inhibition male (individual replicates) R3 [2, 6]: 52.8%; % inhibition male (individual replicates) R4 [2, 7]: 96.9%; HitlevelM ([2]; 2µM): 4; Average inhibition female (%) [3, 4]: 16.4%; % inhibition female (individual replicates) R1 [3, 5]: 12.8%; % inhibition female (individual replicates) R3 [3, 6]: 8.2%; % inhibition female (individual replicates) R4 [3, 7]: 31.4%; HitlevelF ([3]; 2µM): 0
1.94 µM | 2.06 µM | COc1cc2nc(N3CCC(CNC(=O)c4ccc(-c5ccc(Cl)cc5)cc4)CC3)nc(N)c2cc1OC [TCMDC-138718] | 6.93 µM | 3.57 | 3.36 | – | – | – | – | – | – | – | – | Average inhibition male (%) [2, 4]: 79.1%; % inhibition male (individual replicates) R1 [2, 5]: 85.4%; % inhibition male (individual replicates) R3 [2, 6]: 66.5%; % inhibition male (individual replicates) R4 [2, 7]: 84.2%; HitlevelM ([2]; 2µM): 4; Average inhibition female (%) [3, 4]: 49.0%; % inhibition female (individual replicates) R1 [3, 5]: 33.3%; % inhibition female (individual replicates) R3 [3, 6]: 38.5%; % inhibition female (individual replicates) R4 [3, 7]: 37.2%; HitlevelF ([3]; 2µM): 1
0.22 µM | 0.23 µM | COc1cc2nc(N3CCC(CNCc4ccc(-c5ccc(C(F)(F)F)cc5)cc4)CC3)nc(N)c2cc1OC [TCMDC-138757] | 2.05 µM | 9.29 | 8.75 | 97.9% | 97.9% | 96.8% | 99.6% | 59.1% | 32.6% | 30.7% | 89.8% | –
1.19 µM | 1.74 µM | Cl.Clc1ccc(OCCC2CCN(CCCCCCCN3CCC(CCOc4ccc(Cl)c(Cl)c4)CC3)CC2)cc1Cl [TCMDC-138967] | 3.36 µM | 2.82 | 1.93 | 95.6% | 93.1% | 96.8% | 99.1% | 87.8% | 88.3% | 97.6% | 78.8% | –
